Values of other authors, collected in PMC9080292, “Correction: Rational design of a peptide capture agent for CXCL8 based on a model of the CXCL8:CXCR1 complex” (RSC Advances, 2018).
Square brackets hold non-standard residues; d marks the D form. Ends that are not written are not given here. Ahx = NCCCCCC(=O)O

Key:
[1] = synthesized peptide, result in words; ref Helmer et al., RSC Adv., 2015, 5, 25657–25668; cited from earlier work
[2] = molecular target: T1, CXCL8 (Homo sapiens, UniProt P10145); details: original publication; fluorescence anisotropy; now attributed to the peptide ending with glutamic acid; ref Helmer et al., RSC Adv., 2015, 5, 25657–25668; read-out: affinity (reported high affinity); cited from earlier work
T1 sequence (P10145 21-99): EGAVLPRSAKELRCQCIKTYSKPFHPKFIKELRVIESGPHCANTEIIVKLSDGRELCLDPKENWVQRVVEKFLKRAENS
Description: This was confirmed by high resolution mass spectrometry. […] We conclude that all experiments were performed with the peptid ...

Row | Substance | structure by CD-spectroscopy [1] | Kd [2] [nM]
1 | AKWRMVLRI[Ahx]ADTLMRTE [IL8-RP-Loops, IL8 capture peptide; actually synthesized peptide with C-terminal glutamic acid] | a helical structure | –
2 | AKWRMVLRI–Ahx–ADTLMRTE (AKWRMVLRI[Ahx]ADTLMRTE) [IL8-RP-Loops, IL8 capture peptide; actually synthesized peptide with C-terminal glutamic acid] | – | 500 ± 300
